Key:
Type in all cases: in vivo, human
male subjects with T2DM = assay: Eight week single-blind treatment study; responder defined by composite score of glycemic-lowering efficacy (FPG, fructosamine, HbA1c); settings: responder = composite % reduction 1(%ΔFPG)+2(%ΔFructosamine)+1.5(%ΔHbA1c) greater than 30%, 8 weeks
From the text: The study described herein was relatively small-scale (75 male subjects with T2DM) and short-term (8 weeks of treatment). Serum and urine samples were obtained at pre-treatment baseline, and after 4 and 8 weeks of treatment with one of the following: placebo, rosiglitazone, metformin or glyburide. High information content nuclear magnetic resonance (NMR) and liquid chromatography/mass spectroscopy (LC/MS)-based metabolomic platforms, including polar metabolite and lipid profiling, were used to profile the serum and urine samples. A variety of multivariate analysis techniques were used to determine whether polar low molecular weight metabolites, lipids, or fatty acids, analyzed in readily accessible fluids can be used to predict drug responder status at week 8 based on their measurement at baseline or at week 4.
Male subjects aged 30 to 70 years with a documented history of stable T2DM for no more than 10 years duration were eligible for the study described herein if they had been previously treated with diet and exercise alone, monotherapy or low-dose combination therapy. Fasting plasma glucose (FPG) at screening could not exceed 225 mg/dL for subjects treated with diet and exercise alone or 180 mg/dL for subjects receiving monotherapy or low-dose combination therapy. HbA1c was required to be within 5.7 to 10.0% with the following conditions; subjects with HbA1c between 5.7 and 9% must have been diabetic for less than 5 years and treated with mono or low dose combination therapy and have a FBG of 125 to 180 mg/dL, and subjects with HbA1c between 9.1 and 10.0% must not have been treated with combination therapy. In addition, body mass index must have been within the range of 25 to 37.5 kg/m^2, for subjects aged […] years, or 25 to 35.0 kg/m^2 for subjects aged 56 to 70 years. […]
Originally, efficacy response was defined as a FPG decrease of greater than 30 mg/dl. […] Fructosamine, whose half-life is determined by that of albumin, provides a measure of integrated glucose over a period of 2-4 weeks. […]

urine citrate = assay: Urine citrate measured by NMR at week 0 and week 8 in rosiglitazone responders and non-responders; settings: week 8 vs week 0
Protocol: FIGS. 4A-4C show the measure of selected biomarkers in urine or serum.
Male subjects aged 30 to 70 years with a documented history of stable T2DM for no more than 10 years duration were eligible for the study described herein if they had been previously treated with diet and exercise alone, monotherapy or low-dose combination therapy. Fasting plasma glucose (FPG) at screening could not exceed 225 mg/dL for subjects treated with diet and exercise alone or 180 mg/dL for subjects receiving monotherapy or low-dose combination therapy. […]
Serum and urine samples were analyzed using various metabolomic platforms and with traditional serum biomarker (“non-omic”) measurements. Both urine and serum were measured by nuclear magnetic resonance (NMR)-based metabolic profiling. Serum samples were also analyzed by liquid chromatograph (LC)/mass spectrometry (MS) for polar metabolites and lipids, and gas chromatograph (GC)-flame ionization for fatty acids (lipidomics). […]
Citrate may play a critical role in cataplerosis (the export of mitochondrial intermediates into the cytosol and in the induction of fatty acid-derived signaling molecules) and glucose-regulated insulin release [Flamez, D. et al., Diabetes 51, 2018-2024 (2002)]. Because citrate was not quantified in plasma or liver, it is hard to pinpoint the actual biochemical context for the change in this metabolite. […]

[1] = system: inflammation associated with obesity and diabetes; assay: Apparent inflammation observed in the study under rosiglitazone treatment; settings: observed in this study and also reported in the literature
From the text: Serum IL-8 at baseline was higher in responders than non-responders (p=0.032) (FIG. 4C). IL-8 is an important cytokine in the inflammatory process. It is stimulated by high glucose concentrations in endothelial cells in vitro and has chemotactic activity for polymorphonuclear neutrophils (playing an important role in the pathogenesis of chronic complications of diabetes), as well as for T-lymphocyte and smooth muscle cells. Serum IL-8 level was reported to markedly increase in diabetic patients [Zozulinska, D., et al., Diabetologia 42, 117-118 (1999)]. […] Thus, it seems consistent that subjects with higher IL-8 levels were more responsive to rosiglitazone treatment.

## COc1ccc(Cl)cc1C(=O)NCCc1ccc(S(=O)(=O)NC(=O)NC2CCCCC2)cc1 [Glyburide, 5-chloro-N-[2-[4-(cyclohexylcarbamoylsulfamoyl)phenyl]ethyl]-2-methoxy-benzamide]
Male subjects with T2DM
  Fractions of responders in each treatment after eight weeks of treatment: 0.60

## CN(C)C(=N)N=C(N)N [Metformin]
Male subjects with T2DM
  Fractions of responders in each treatment after eight weeks of treatment: 0.53

## CN(CCOc1ccc(CC2SC(=O)NC2=O)cc1)c1ccccn1 (stereo not drawn) [Rosiglitazone, 5-[[4-[2-(methyl-pyridin-2-yl-amino)ethoxy]phenyl]methyl]thiazolidine-2,4-dione]
Male subjects with T2DM
  Fractions of responders in each treatment after eight weeks of treatment: 0.43
Urine citrate; non-responders (n=12)
  change in level of urine citrate after 8 week treatment, non-responder subjects: did not change
Urine citrate; responders (n=9)
  change in level of urine citrate after 8 week treatment, responder group: did increase urine citrate (not statistically significant)
[1]
  effect of treatment on apparent inflammation: reduce apparent inflammation
